Data on 27 molecules can be found in patent US9029536B2, “Fused heterocyclic compounds” (Takeda Pharmaceutical Company Limited, priority 2010, dated 2015).

Counter-ions that a name gives are not always drawn.

One data set concerns the target T1, Human PDE10A enzyme (Homo sapiens, UniProt Q9Y233).
T1 construct: Sf9 or COS-7 cells transfected with the full-length gene; His-tag; made in house; host or cells: Sf9 or COS-7 cells
Briefly: PDE enzyme inhibition (SPA, [3H]cGMP). The class given is biochemical. To be noted: 1 μM compound, [3H]cGMP substrate. As for the experimental part: Human PDE10A enzyme was generated from Sf9 or COS-7 cells transfected with the full-length gene. Cloned enzyme was extracted from homogenized cell pellets. The extracted enzyme from sf9 cells was partially purified using His-tag affinity column. The enzyme was stored at −70° C. until use. PDE activity was measured using a SPA (Scintillation Proximity Assay) (GE Healthcare). To evaluate the inhibitory activity, 10 μL of serial diluted compounds were incubated with 20 μL of PDE enzyme in assay buffer (50 mM HEPES-NaOH, 8.3 mM MgCl2, 1.7 mM EGTA, 0.1% BSA (pH 7.4)) for 30 min. at room temperature. Final concentration of DMSO in the assay was 1 percent as compounds were tested in duplicate in 96-well half-area plates (Corning). To start the reaction, 10 μL of substrate [^3H] cGMP (25 or 50 nM; enclosed in SPA kits from GE Healthcare or purchased from PerkinElmer, respectively) was added for a final assay volume of 40 μL. After 60 min incubation at room temperature, yttrium SPA beads containing Zinc sulphate were added (20 μL at 6 mg/mL) to terminate the PDE reaction. After being settled for 60 min, assay plates were counted in a scintillation counter (PerkinElmer) to allow calculation of inhibition rate. Inhibition rate was calculated on the basis of 0% control wells with DMSO and 100% control wells without enzyme.

T1 sequence (Q9Y233 267-1055): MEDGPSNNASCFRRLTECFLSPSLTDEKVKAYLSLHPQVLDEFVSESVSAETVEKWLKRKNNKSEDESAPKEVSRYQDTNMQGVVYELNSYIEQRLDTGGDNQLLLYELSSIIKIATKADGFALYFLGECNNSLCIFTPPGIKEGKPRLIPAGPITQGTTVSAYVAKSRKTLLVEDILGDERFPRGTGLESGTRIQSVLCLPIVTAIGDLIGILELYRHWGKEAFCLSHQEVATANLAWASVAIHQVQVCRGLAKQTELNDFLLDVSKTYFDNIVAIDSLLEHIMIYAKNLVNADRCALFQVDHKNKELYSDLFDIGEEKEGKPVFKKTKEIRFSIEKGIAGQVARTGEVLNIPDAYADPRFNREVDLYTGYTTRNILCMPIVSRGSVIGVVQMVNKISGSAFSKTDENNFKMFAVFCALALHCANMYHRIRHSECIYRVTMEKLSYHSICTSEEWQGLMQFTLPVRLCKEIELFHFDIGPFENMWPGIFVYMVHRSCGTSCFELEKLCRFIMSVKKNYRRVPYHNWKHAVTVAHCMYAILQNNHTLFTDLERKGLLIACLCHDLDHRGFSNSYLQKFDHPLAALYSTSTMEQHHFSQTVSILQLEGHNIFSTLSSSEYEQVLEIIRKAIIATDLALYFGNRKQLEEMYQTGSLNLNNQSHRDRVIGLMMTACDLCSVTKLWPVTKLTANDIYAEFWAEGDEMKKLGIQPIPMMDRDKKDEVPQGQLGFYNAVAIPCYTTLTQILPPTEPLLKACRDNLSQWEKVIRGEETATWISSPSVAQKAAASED

On to `Cn1cc(-c2ccc(Nc3nc4ccccc4o3)cc2)c2ncccc21` [Example 1, N-[4-(1-Methyl-1H-pyrrolo[3,2-b]pyridin-3-yl)phenyl]-1,3-benzoxazol-2-amine hydrochloride], for which the inhibition at 1 µM against Human PDE10A enzyme was found to be 97.6%.
The same measure, in the same setting: in the case of `CCn1nc(-c2ccc(Oc3nc4ccccc4[nH]3)cc2)c2ncccc21` [Example 3, 3-[4-(1H-Benzimidazol-2-yloxy)phenyl]-1-ethyl-1H-pyrazolo[4,3-b]pyridine] it was 97.7%.
Take `CCn1nc(-c2ccc(Oc3nc4ccccc4n3C)cc2)c2ncccc21` [Example 4, 1-Ethyl-3-{4-[(1-methyl-1H-benzimidazol-2-yl)oxy]phenyl}-1H-pyrazolo[4,3-b]pyridine]: at Human PDE10A enzyme, the inhibition at 1 µM is 98.7%.
Turning to `CCn1nc(-c2ccc(C(=O)c3nc4ccccc4n3C)cc2)c2ncccc21` [Example 6, [4-(1-Ethyl-1H-pyrazolo[4,3-b]pyridin-3-yl)phenyl] (1-methyl-1H-benzimidazol-2-yl)methanone], on Human PDE10A enzyme, the inhibition at 1 µM came to 95%.
On the same count and under the same terms, in the case of `CCn1nc(-c2ccc3c(c2)CCN3c2nc3ccccc3[nH]2)c2ncccc21` [Example 7, 3-[1-(1H-Benzimidazol-2-yl)-2,3-dihydro-1H-indol-5-yl]-1-ethyl-1H-pyrazolo[4,3-b]pyridine] it was 101%; in that of `CCn1nc(-c2ccc(Oc3cn4ccccc4n3)cc2)c2ncccc21` [Example 8, 1-Ethyl-3-[4-(imidazo[1,2-a]pyridin-2-yloxy)phenyl]-1H-pyrazolo[4,3-b]pyridine hydrochloride], 100%.
Take `CCn1nc(-c2ccc(Oc3nc4ccccc4[nH]3)nc2)c2ncccc21` [Example 10, 3-[6-(1H-Benzimidazol-2-yloxy)pyridin-3-yl]-1-ethyl-1H-pyrazolo[4,3-b]pyridine]: at Human PDE10A enzyme, the inhibition at 1 µM came out at 99%.
In the case of `c1ccc2[nH]c(Oc3ccc(-c4c5n(c6cccnc46)CCCC5)cc3)nc2c1` [Example 13, 10-[4-(1H-Benzimidazol-2-yloxy)phenyl]-6,7,8,9-tetrahydropyrido[2,3-b]indolizine], the melting point is 264 °C (dec.). The inhibition at 1 µM against Human PDE10A enzyme was found to be 103%.
As to `CCn1nc(-c2ccc(Oc3nc4cccnc4n3C)cc2)c2ncccc21` [Example 14, 1-Ethyl-3-{4-[(3-methyl-3H-imidazo[4,5-b]pyridin-2-yl)oxy]phenyl}-1H-pyrazolo[4,3-b]pyridine], the melting point lay in the range of 176 to 177 °C.
The molecule `CC(C)n1nc(-c2ccc(Oc3nc4cccnc4n3C)cc2)c2ncccc21` [Example 18, 1-(1-Methylethyl)-3-{4-[(3-methyl-3H-imidazo[4,5-b]pyridin-2-yl)oxy]phenyl}-1H-pyrazolo[4,3-b]pyridine] showed a melting point of 163 to 164 °C. In addition, the inhibition at 1 µM against Human PDE10A enzyme worked out at 100%.
Turning to `CCn1nc(-c2ccc(C3CCn4c3nc3ccccc34)cc2)c2ncccc21` (centres unmarked) [Example 24, 3-[4-(1-Ethyl-1H-pyrazolo[4,3-b]pyridin-3-yl)phenyl]-2,3-dihydro-1H-pyrrolo[1,2-a]benzimidazole], the inhibition at 1 µM against Human PDE10A enzyme amounted to 99%.
`CCn1nc(-c2ccc(Oc3nc4cccnc4n3C)cc2)c2nccnc21` [Example 28, 1-Ethyl-3-{4-[(3-methyl-3H-imidazo[4,5-b]pyridin-2-yl)oxy]phenyl}-1H-pyrazolo[3,4-b]pyrazine] gave a melting point of 161 to 162 °C. Moreover, the inhibition at 1 µM on Human PDE10A enzyme was 101%.
Molecule `CCn1nc(-c2ccc(Oc3nc4ccccc4n3CCO)cc2)c2ncccc21` [Example 29, 2-{2-[4-(1-Ethyl-1H-pyrazolo[4,3-b]pyridin-3-yl)phenoxy]-1H-benzimidazol-1-yl}ethanol] came in with a melting point of 183 to 184 °C.
With `CCn1nc(-c2ccc(Oc3nc4cccnc4n3CCOC)cc2)c2ncccc21` [Example 34, 1-Ethyl-3-(4-{[3-(2-methoxyethyl)-3H-imidazo[4,5-b]pyridin-2-yl]oxy}phenyl)-1H-pyrazolo[4,3-b]pyridine], the inhibition at 1 µM against Human PDE10A enzyme turned out to be 105%.
Still for that read-out and setting: in the case of `COCCn1c(Oc2ccc(-c3nn(C(C)C)c4cccnc34)cc2)nc2cccnc21` [Example 35] it was 93%.
Molecule `CCn1nc(-c2ccc(Oc3nc4ccccc4n3CC(C)(C)O)cc2)c2ncccc21` [Example 36, 1-{2-[4-(1-Ethyl-1H-pyrazolo[4,3-b]pyridin-3-yl)phenoxy]-1H-benzimidazol-1-yl}-2-methylpropan-2-ol] showed a melting point of 152 to 153 °C. Besides, the inhibition at 1 µM against Human PDE10A enzyme stood at 99%.
As to `CCn1nc(-c2ccc(Oc3nc4cccnc4n3C)cc2)c2ncc(F)cc21` [Example 37, 1-Ethyl-6-fluoro-3-{4-[(3-methyl-3H-imidazo[4,5-b]pyridin-2-yl)oxy]phenyl}-1H-pyrazolo[4,3-b]pyridine], the inhibition at 1 µM on Human PDE10A enzyme is 101%.
With `CCn1nc(-c2ccc(Oc3nc4cccnc4n3C)cc2)c2ncncc21` [Example 38, 1-Ethyl-3-{4-[(3-methyl-3H-imidazo[4,5-b]pyridin-2-yl)oxy]phenyl}-1H-pyrazolo[4,3-d]pyrimidine], the melting point was in the range of 218 to 220 °C. Also, the inhibition at 1 µM against Human PDE10A enzyme was 103%.
For `Cn1c(Oc2ccc(-c3nn(CC(F)F)c4cccnc34)cc2)nc2cccnc21` [Example 39, 1-(2,2-Difluoroethyl)-3-{4-[(3-methyl-3H-imidazo[4,5-b]pyridin-2-yl)oxy]phenyl}-1H-pyrazolo[4,3-b]pyridine], the inhibition at 1 µM at Human PDE10A enzyme was 102%.
Regarding `CC(C)n1nc(-c2ccc(Oc3nc4cccnc4n3C)cc2)c2ncc(F)cc21` [Example 40, 6-Fluoro-1-(1-methylethyl)-3-{4-[(3-methyl-3H-imidazo[4,5-b]pyridin-2-yl)oxy]phenyl}-1H-pyrazolo[4,3-b]pyridine], the inhibition at 1 µM on Human PDE10A enzyme came to 101%.
Regarding `Cn1nc(-c2ccc(Oc3nc4cccnc4n3C)cc2)c2ncccc21` [Example 44, 1-Methyl-3-{4-[(3-methyl-3H-imidazo[4,5-b]pyridin-2-yl)oxy]phenyl}-1H-pyrazolo[4,3-b]pyridine], the inhibition at 1 µM on Human PDE10A enzyme was 107%.
Same read-out and setting: in the case of `Cn1nc(-c2ccc(Oc3nc4cccnc4n3C)cc2)c2ncc(F)cc21` [Example 45, 6-Fluoro-1-methyl-3-{4-[(3-methyl-3H-imidazo[4,5-b]pyridin-2-yl)oxy]phenyl}-1H-pyrazolo[4,3-b]pyridine] it was 95%; in that of `CCn1nc(-c2ccc(Oc3nc4cccnc4n3CCOC)cc2)c2ncc(F)cc21` [Example 48, 1-Ethyl-6-fluoro-3-(4-{[3-(2-methoxyethyl)-3H-imidazo[4,5-b]pyridin-2-yl]oxy}phenyl)-1H-pyrazolo[4,3-b]pyridine], 104%; in that of `COCCn1c(Oc2ccc(-c3nn(CC(F)F)c4cc(F)cnc34)cc2)nc2cccnc21` [Example 49, 1-(2,2-Difluoroethyl)-6-fluoro-3-(4-{[3-(2-methoxyethyl)-3H-imidazo[4,5-b]pyridin-2-yl]oxy}phenyl)-1H-pyrazolo[4,3-b]pyridine], 103%.
Take `COCCn1c(Oc2ccc(-c3nn(C)c4cc(F)cnc34)cc2)nc2cccnc21` [Example 50, 6-Fluoro-3-(4-{[3-(2-methoxyethyl)-3H-imidazo[4,5-b]pyridin-2-yl]oxy}phenyl)-1-methyl-1H-pyrazolo[4,3-b]pyridine]: the inhibition at 1 µM against Human PDE10A enzyme amounted to 100%.
Take `Cn1c(Oc2ccc(-c3nn(CC(F)F)c4cc(F)cnc34)cc2)nc2cccnc21` [Example 51]: the inhibition at 1 µM on Human PDE10A enzyme amounted to 102%.
The same measure, in the same setting: in the case of `COCCn1c(Oc2ccc(-c3nn(CC(F)F)c4cccnc34)cc2)nc2cccnc21` [Example 52, 1-(2,2-Difluoroethyl)-3-(4-{[3-(2-methoxyethyl)-3H-imidazo[4,5-b]pyridin-2-yl]oxy}phenyl)-1H-pyrazolo[4,3-b]pyridine] it was 101%.
